Measurements taken from patent US20100120843A1, “PHARMACEUTICAL COMPOSITION FOR TREATING ALCOHOL-INDUCED LIVER INJURY COMPRISING (4S,5S)-5-FLUOROMETHYL-5-HYDROXY-4-(AMINO)-DIHYDROFURAN-2-ONE OR PHARMACEUTICALLY ACCEPTABLE SALT THEREOF” (LG Life Sciences Ltd., priority 2008, published 2010).

Experiments:
[1] = system: liver; experiment: Histological assessment of liver (H&E and Masson's trichrome); format: in vivo, rat
Excerpt: (§1) Male Sprague-Dawley rats (5 weeks of age, 170 g of body weight) were divided into four experimental groups: control diet group, control diet with CF1 group, ethanol (EtOH) diet group and EtOH diet with CF1 group. Control diet group, control diet with CF1 group, EtOH diet group, and EtOH diet with CF1 group were fed, respectively, with Lieber-Decarli control diet, Lieber-Decarli control diet and CF1, Lieber-Decarli liquid diet containing 6% ethanol, and Lieber-Decarli liquid diet containing 6% ethanol and CF1 for 12 weeks. CF1 was dissolved in PEG (polyethylene glycol) 400 and 5% ethanol solution (PEG 400:ethanol=2:1), and administered daily at 10 mg/kg by oral gavage. About 8 hours prior to rats' sacrifice, lipopolysaccharide (LPS) was intraperitoneally injected to increase the liver injury in the amount of 1 mg/kg.
The extracted livers were fixed by 10% neutral formalin in PBS (phosphate buffered saline). Then, a paraffin section of 4 μm thickness was prepared, and stained with H&E (Hematoxylin & Eosin) and Masson's trichrome. The stained tissue was photographed at 100 times magnification (FIGS. 4A and 4B).

[2] = target: T1, caspase-3 (Rattus norvegicus, UniProt P55213); experiment: Fluorometric assay of caspase-3 activity in cellular extraction of liver tissue; format: in vivo; conditions: EtOH diet with CF1 10 mg/kg oral daily, 12 weeks, LPS 1 mg/kg i.p. 8 h before sacrifice; FIG. 1
T1 construct: the activities of caspase-3 and caspase-8 were assayed in cellular extraction of liver tissue; from tissue; host or cells: liver of Sprague-Dawley rats dosed orally with CF1
T1 sequence (P55213 29-175 limits assumed): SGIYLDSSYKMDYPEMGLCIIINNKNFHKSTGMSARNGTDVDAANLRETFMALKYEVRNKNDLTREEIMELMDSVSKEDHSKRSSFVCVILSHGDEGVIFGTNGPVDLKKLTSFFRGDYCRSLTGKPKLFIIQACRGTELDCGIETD
T1 sequence (P55213 176-277 limits assumed): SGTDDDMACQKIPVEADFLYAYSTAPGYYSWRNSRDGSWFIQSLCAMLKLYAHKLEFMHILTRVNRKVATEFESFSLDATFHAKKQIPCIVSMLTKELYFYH
Excerpt: as §1
(§2) To investigate the role of caspase in alcohol-induced liver injury, the activities of caspase-3 and caspase-8 were assayed in cellular extraction of liver tissue. The activities of caspase-3 and caspase-8 were assayed by using EnzChek™ Caspase Assay Kit molecular Probes, USA) according to the manufacturer's instructions.

[3] = Determination of serum liver enzymes (AST, ALT) in association with liver injury; format: in vivo, rat; conditions: 12 weeks
Excerpt: as §1
Liver injury was assessed by a biochemical assay of liver enzyme. After the 12 weeks' experiment, the blood samples were obtained from all rats' heart. Serum aspartate transaminase (AST) and alanine transaminase (ALT) values were analyzed for 100 μl of plasma from each blood sample with Hitachi 7050 automatic analyzer (Hitachi, Japan).

[4] = target: T2, caspase-8 (Rattus norvegicus, UniProt Q9JHX4); experiment: Fluorometric assay of caspase-8 activity in cellular extraction of liver tissue; format: in vivo; conditions: EtOH diet with CF1 10 mg/kg oral daily, 12 weeks, LPS 1 mg/kg i.p. 8 h before sacrifice; FIG. 2
T2 construct: the activities of caspase-3 and caspase-8 were assayed in cellular extraction of liver tissue; from tissue; host or cells: liver of Sprague-Dawley rats dosed orally with CF1
T2 sequence (Q9JHX4 219-378 limits assumed): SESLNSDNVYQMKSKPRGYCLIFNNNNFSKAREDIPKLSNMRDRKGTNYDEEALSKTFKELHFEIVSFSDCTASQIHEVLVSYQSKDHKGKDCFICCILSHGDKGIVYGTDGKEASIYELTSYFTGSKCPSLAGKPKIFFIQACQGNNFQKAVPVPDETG
T2 sequence (Q9JHX4 389-482 limits assumed): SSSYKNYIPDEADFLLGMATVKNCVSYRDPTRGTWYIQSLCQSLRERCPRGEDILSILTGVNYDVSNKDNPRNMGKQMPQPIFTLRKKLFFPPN
Excerpt: as §1, §2

[5] = system: apoptosis of liver cell; experiment: TUNEL staining of liver tissue (apoptosis of liver cell); format: in vivo, rat
Excerpt: as §1
To investigate apoptosis of liver cell according to alcohol ingestion, TUNEL staining was processed. TUNEL staining was carried out using in situ Cell Death Detection Kit (Roche Diagnostics, Germany) according to the manufacturer's instructions.
Stained tissue was photographed at 100 times magnification (FIG. 5). TUNEL positive cells per field were calculated.

## CC(C)[C@@]1(C(=O)N[C@H]2CC(=O)O[C@]2(O)CF)CC(c2nccc3ccccc23)=NO1 [CF1, (4S,5S)-5-fluoromethyl-5-hydroxy-4-({[(5R)-5-isopropyl-3-(isoquinolin-1-yl)-4,5-dihydro-5-isoxazolyl]carbonyl}amino)-dihydrofuran-2-one]
[1]; Alcohol diet with CF1 compared with control diet groups, no statistical significance, FIG. 4B
  Hepatic fibrosis (Masson's trichrome): some progression of hepatic fibrosis
[1]; Alcohol diet with CF1 vs alcohol diet group, FIG. 4A
  Fatty liver (H&E staining): inhibited the increase of fatty liver
[2]
  caspase-3 activity in liver tissue: decreased to the level of control group
[3]; Alcohol diet with CF1 10 mg/kg oral daily, alcohol diet group 336±163 IU/L
  Serum alanine transaminase (ALT): 120±10 IU/L
[3]; Alcohol diet with CF1 10 mg/kg oral daily, alcohol diet group 454±175 IU/L
  Serum aspartate transaminase (AST): 194±22 IU/L
[3]; Control diet with CF1 10 mg/kg oral daily, FIG. 3
  Serum AST and ALT values compared with control diet group: did not show significant change
[4]
  caspase-8 activity in liver tissue: decreased to the level of control group
[5]; Alcohol diet with CF1 10 mg/kg oral daily, 12 weeks, alcohol diet group 25.14±9.14, control diet group 10.3±1.9
  TUNEL positive cells per field: 6.4±1.1 TUNEL positive cells/field
[5]; Control diet with CF1 group, FIGS. 5 and 6
  TUNEL positive cells: rarely observed
